The source of these data is patent US20180264134A1, “A COMPOSITION OF GOLD NANOPARTICLES HAVING ANTIMICROBIAL PEPTIDES BOUND ON THEIR SURFACE FOR USE THE TREATMENT OF WOUND HEALING OR IN THE TREATMENT OF ISCHEMIC OR VASCULAR DISEASES OR IN THE TREATMENT OF SKIN DISORDERS” (priority 2015, published 2018).

The structures appear in SMILES notation.

Experiment [1] concerns platelets. The experiment is described as follows: Platelet activation (CD62P expression) in whole peripheral blood. In kind it is cell-based, human. The settings on record: positive control. On the procedure:
In an embodiment, to evaluate the hemocompatibility of Au NPs and LL37-Au NPs, the induction of platelet activation was tested. Platelet activation was measured by the flow cytometric quantification of CD62P (P-selectin) expression. CD62P is a component of the α-granule membrane of resting platelets that is expressed on the platelet surface membrane only after α-granule secretion, which occurs during platelet activation. Platelets are very sensitive to in vitro activation and aggregation, therefore, the less they are manipulated the better, for this reason the whole peripherical blood (diluted in tyrode buffer) were incubated with the NPs instead of isolating platelet rich plasma. […] As positive control it was used ADP, a platelet activator, which induced the activation of 40% of the platelets (FIG. 13). […] In contrast, HUVECs were more sensitive to soluble LL37 than HaCaT showing cytotoxic effect at a concentration of 10 μg/mL and 30 μg/mL, respectively. Furthermore, LL37-Au NPs have lower cytotoxic and impact on membrane potential than soluble peptide that for the same concentration of LL37 (up to 100 μg/mL). Differences in the cell membrane composition between HUVECs and HaCaT might account for the differences between endothelial and epithelial cells response on LL37 cytotoxicity as supported by the result of membrane potential analysis (FIG. 13d).

Experiment [2] has as its system clathrin-mediated endocytosis. The experiment is described as follows: FITC-labelled transferrin uptake (validation of dynasore). In kind it is cell-based, human. The following applies: 80 μM, 30 min pre-incubation, keratinocytes. Here is the method:
In an embodiment the HaCaT keratinocyte cells were cultured on 24 well plates (1×10^6 cells/well) and inhibited by one of the following chemicals during 30 min before adding a suspension of Rhodamine-labelled NPs (15 μg/mL): dynasor (100 μM), cytochalasin D (100 μM), nocodazole (25 uM), filipin III (1 μM) and polyinosinic acid (100 μg/mL), 5-(N-ethyl-N-isopropyl)amiloride (EIPA), dextran sulfate. The inhibitor concentrations were based in values reported in literature and further validated by us to have no cytotoxic effect over the period of the assay (6 h), as confirmed by viability assay. The incubation of the cells with NPs for different times was performed in the presence of the inhibitor. As controls, HaCaT keratinocyte cells without NPs and cells incubated with NPs without inhibitor were used. At the end of each time point, cells were centrifuged at 1300 rpm, 20° C. for 5 min, washed 3 times with cold PBS and then resuspended in PBS containing 2.5% FBS (500 μL) for FACS analysis. A total of 10,000 events were obtained per measurement. To validate the inhibitory activity of dynasor it were performed uptake studies of FITC-labeled transferrin, known to selectively enter cells via clathrin-mediated endocytosis. […] Cells were then evaluated as before.

`Nc1ncnc2c1ncn2[C@@H]1O[C@H](COP(=O)(O)OP(=O)(O)O)[C@@H](O)[C@H]1O` [ADP] came in with an activated platelets in experiment [1] of 40%.
On to `O=C(N/N=C/c1ccc(O)c(O)c1)c1cc2ccccc2cc1O` [Dynasore, dynasore], for which the “internalisation of FITC-labelled transferrin” value in experiment [2] is on record as “inhibits the internalisation of transferrin”.
